A short description of this data set: in vitro. To be noted: human, hela cells, % viability.

Consider 53 compounds from paper PMC12040169 (PLOS Biology, 2025).

The viability is a read-out of living cells in per cent, often relative to untreated cells.

With `CCCCN(C=O)c1c(CC)nc2ccc(C(=O)N3CCN(C)CC3)cn12` [CBK145707], the viability at 28.5 h, 10 µM is 93.1%.
With `CCCCN(C=O)c1c(CC)nc2ccc(C(=O)NCC3CCCCC3)cn12` [CBK145708], the viability at 28.5 h, 10 µM came out at 85.3%.
Next, `CCCCN(C(C)=O)c1c(CC)nc2ccc(C(=O)NCCCn3ccnc3)cn12` [CBK145759]: 96.1%.
On to `CCCCNC(=O)c1ccc2nc(CC)c(N(C)C(=O)C3CCCCC3)n2c1` [CBK145791], for which the viability at 28.5 h, 10 µM worked out at 88.9%.
To `CCc1nc2ccc(C(=O)NC3=NC(=O)CS3)cn2c1N(CC)C(C)=O` [CBK145839] belongs 100%; to `CCc1nc2ccc(C(=O)NCCCN3CCCC3=O)cn2c1N(C)C(=O)COc1ccccc1` [CBK145855], 98.7%; to `Cc1nc2ccc(C(=O)N(C)CCN(C)C)cn2c1N(C)CC1CCCCC1` [CBK145894], 96.7%.
Next, `CCc1nc2ccc(C(=O)Nc3ccc4c(c3)CCN4C(C)=O)cn2c1N(C=O)CC` [CBK145944]: 102%.
Next, `CCN(CC)c1c(C)nc2ccc(C(=O)NCCc3ccccn3)cn12` [CBK145951]: 94.9%; `CCN(CC)c1c(C)nc2ccc(C(=O)N3CCN(C)CC3)cn12` [CBK145955]: 91.5%; `CCN(CC)c1c(C)nc2ccc(C(=O)NCc3ccc(N(C)C)cc3)cn12` [CBK145961]: 92.7%.
Consider `CCN(CC)c1c(C)nc2ccc(C(=O)NCCN3CCNC3=O)cn12` [CBK145977], for which the viability at 28.5 h, 10 µM was found to be 97.8%.
For the compound `CCN(CC)c1c(C)nc2ccc(C(=O)Nc3cc(-c4ccccc4)ccc3OC)cn12` [CBK145980], the viability at 28.5 h, 10 µM turned out to be 121%.
To `CCCCN(C)c1c(C)nc2ccc(C(=O)N(C)CCCN(C)C)cn12` [CBK146006] belongs 103%; to `CCc1nc2ccc(C(=O)Nc3ccc(Cl)c(Cl)c3)cn2c1N(CC)CCOC` [CBK146042], 94%.
Regarding `Cc1nc2ccc(C(=O)NC3=NC(=O)CS3)cn2c1N(C)Cc1cccs1` [CBK146110], the viability at 28.5 h, 10 µM is 86.3%.
To `CCc1nc2ccc(C(=O)N3CCNC(=O)C3)cn2c1N(CCC(C)C)CCN(C)C` [CBK146255] belongs 92.4%; to `CCNC(=O)N(C)c1c(CC)nc2ccc(C(=O)N3CCN(C(C)=O)CC3)cn12` [CBK146362], 104%; to `CCc1nc2ccc(C(=O)N3CCCCC3)cn2c1N(C)C(=O)c1cccc(OC)c1` [CBK146392], 113%.
To `Cc1nc2ccc(C(=O)N3CCN(c4ccccc4)CC3)cn2c1N(C)C(=O)c1cccs1` [CBK146544] belongs 99%; to `COc1ccccc1CNC(=O)c1ccc2nc(C)c(N(C)C(=O)c3cccs3)n2c1` [CBK146546], 86.9%; to `CCc1nc2ccc(C(=O)N(C)CCN(C)C)cn2c1N(C)Cc1cc2ccccc2s1` [CBK146551], 89.3%.
Turning to `CCc1nc2ccc(C(=O)NCCN3CCOCC3)cn2c1N(C)Cc1cc2ccccc2s1` [CBK146561], the viability at 28.5 h, 10 µM is 101%.
To `CCc1nc2ccc(C(=O)NC3CCN(C)CC3)cn2c1N(C)C=O` [CBK146594] belongs 108%; to `CCc1nc2ccc(C(=O)NCCN3CCOCC3)cn2c1N(C=O)Cc1ccc(OC)cc1` [CBK146625], 97.9%.
With `CCc1nc2ccc(C(=O)Nc3cccc(NS(C)(=O)=O)c3)cn2c1N(C)CCCc1ccccc1` [CBK146670], the viability at 28.5 h, 10 µM was 101%.
Regarding `CCc1nc2ccc(C(=O)NCCN(C)C)cn2c1N(CC)CC(=O)N(C)C` [CBK146762], the viability at 28.5 h, 10 µM stood at 89.6%.
Next, `Cc1nc2ccc(C(=O)N3CCN(C)CC3)cn2c1N(C)C(=O)CCc1ccccc1` [CBK146786]: 95.3%; `CCc1nc2ccc(C(=O)N3CCC(O)(Cc4ccccc4)CC3)cn2c1N(CC)C(=O)CCC1CCCC1` [CBK146854]: 88.1%.
To `CCc1nc2ccc(C(=O)Nc3ccc(NC(C)=O)cc3)cn2c1N(C)C(=O)Cc1ccccc1` [CBK146855] belongs 95.3%; to `CCc1nc2ccc(C(=O)N(C)CCN(C)C)cn2c1N(C)C(=O)Cc1ccccc1` [CBK146858], 90.8%.
For the compound `CCc1nc2ccc(C(=O)N(C)CCN(C)C)cn2c1N(CC)C(=O)NCCc1ccccc1` [CBK147036], the viability at 28.5 h, 10 µM was found to be 96.4%.
Next, `CCCCC(=O)N(C)c1c(C)nc2ccc(C(=O)Nc3ccc(C(N)=O)cc3)cn12` [CBK147066]: 94.5%.
To `Cc1nc2c(OCC(=O)C(C)(C)C)cccn2c1N(C)C(=O)C1CCCCC1` [CBK147145] belongs 92.4%; to `Cc1nc2c(Oc3ncccn3)cccn2c1N(C)C(=O)C1CCCCC1` [CBK147161], 99.1%.
Next, `Cc1nc2c(OCc3ccc(F)c(F)c3)cccn2c1N(C)C(=O)CCC1CCCC1` [CBK147202]: 99.3%; `CCC(CC)C(=O)N(C)c1c(C)nc2c(OCC(=O)c3ccc(F)cc3)cccn12` [CBK147239]: 113%.
`Cc1nc2c(OCC3CCCCC3)cccn2c1N(C)CC1CC1` [CBK147279]: the viability at 28.5 h, 10 µM was determined as 97.2%.
Next, `Cc1nc2c(OCC(=O)c3ccc(Cl)cc3Cl)cccn2c1N(C)CC1CC1` [CBK147294]: 105%.
Next, `CCN(C)c1c(C)nc2c(OCc3ccccc3C(=O)OC)cccn12` [CBK147321]: 95.5%; `CCc1nc2c(OCCOc3ccccc3)cccn2c1N(C)C(=O)COc1ccccc1` [CBK147355]: 95.2%; `CCOC(=O)N(C)c1c(CC)nc2c(OCC(=O)C(C)(C)C)cccn12` [CBK147382]: 94.2%.
To `CCc1nc2c(OCCCN(C)S(C)(=O)=O)cccn2c1N(C)C(=O)c1ccco1` [CBK147435] belongs 95%; to `CCc1nc2c(OCC(=O)N3CCOCC3)cccn2c1N(C)C(=O)c1ccco1` [CBK147436], 92%.
For `CCc1nc2c(OCC=C(C)C)cccn2c1N(C)C(=O)c1cccc(OC)c1` [CBK147448], the viability at 28.5 h, 10 µM amounted to 94.3%.
Next, `COc1ccc(CN(C)c2c(C)nc3c(OCC(=O)C(C)(C)C)cccn23)cc1` [CBK147458]: 100%; `COc1ccc(CN(C)c2c(C)nc3c(OCCc4cccc(OC)c4)cccn23)cc1` [CBK147467]: 109%.
To `CCc1nc2c(OCCOc3ccc(F)cc3)cccn2c1N(C)C(=O)c1ccncc1` [CBK147472] belongs 93.6%; to `CCc1nc2c(OCCOc3ccccc3)cccn2c1N(C=O)CC(=O)N(C)C` [CBK147510], 96.5%.
To `CCc1nc2c(OCC(=O)c3ccc(Cl)cc3Cl)cccn2c1N(C)C(=O)C1CC1` [CBK147712] belongs 89.7%.
On to `CCc1nc2c(Oc3nc4ccccc4s3)cccn2c1N(C)C(=O)C(C)C` [CBK147765], for which the viability at 28.5 h, 10 µM stood at 88.5%.
In the case of `CCCCC(=O)N(C)c1c(CC)nc2c(OCc3ccc(C#N)cc3)cccn12` [CBK147779], the viability at 28.5 h, 10 µM was found to be 94.6%.
To `CCNC(=O)N(C)c1c(CC)nc2c(OCc3ccc(S(C)(=O)=O)cc3)cccn12` [CBK147797] belongs 93.4%.
